Activity calls are given as the source filed them. The rule behind the calls is not given here.
Legend:
[1] = Metabolic stability in human liver microsomes assessed as intrinsic clearance at 3 uM incubated upto 90 mins in presence of NADPH by LC-MS/MS analysis; assay type: ADME, Microsome; conditions: read-out: CLH
[2] = Metabolic stability in human liver microsomes assessed as half life at 3 uM incubated upto 90 mins in presence of NADPH by LC-MS/MS analysis; assay type: ADME, Microsome
[3] = Metabolic stability in rat liver microsomes assessed as half life at 3 uM incubated upto 90 mins in presence of NADPH by LC-MS/MS analysis; assay type: ADME, Microsome
[4] = Metabolic stability in rat liver microsomes assessed as intrinsic clearance at 3 uM incubated upto 90 mins in presence of NADPH by LC-MS/MS analysis; assay type: ADME, Microsome; conditions: read-out: CLH
[5] = Metabolic stability in mouse liver microsomes assessed as intrinsic clearance at 3 uM incubated upto 90 mins in presence of NADPH by LC-MS/MS analysis; assay type: ADME, Microsome; conditions: read-out: CLH
[6] = Metabolic stability in mouse liver microsomes assessed as half life at 3 uM incubated upto 90 mins in presence of NADPH by LC-MS/MS analysis; assay type: ADME, Microsome
Mus musculus [7] = test: Anti-inflammatory activity against DSS-induced acute ulcerative colitis in C57BL/6 mouse model assessed as decrease in colon length shortening at 100 mg/kg, po QD for 6 days (Rvb= 5.5cm); assay type: functional; conditions: time 6 day
Mus musculus [8] = test: Anti-inflammatory activity against DSS-induced acute ulcerative colitis in C57BL/6 mouse model assessed as decrease in IL-6 production in colon at 100 mg/kg, po QD for 6 days by ELISA; assay type: functional, organism-based; conditions: time 6.0 day
[9] = Acute toxicity in BALB/c mouse assessed as changes in ALB level in serum at 1000 mg/kg,po and measured after 14 days by Biochemistry analysis; assay type: organism-based; conditions: in vivo, 336 h, time 14 day
[10] = Acute toxicity in BALB/c mouse assessed as body weight loss at 1000 mg/kg,po and measured for 14 days; assay type: organism-based; conditions: in vivo, 336 h, time 14 day
[11] = Acute toxicity in BALB/c mouse assessed as changes in platelet count in blood at 1000 mg/kg,po and measured after 14 days by hematology test; assay type: organism-based; conditions: in vivo, 336 h, time 14 day
[12] = Acute toxicity in BALB/c mouse assessed as changes in ALT level in serum at 1000 mg/kg,po and measured after 14 days by Biochemistry analysis; assay type: organism-based; conditions: in vivo, 336 h, time 14 day
[13] = Acute toxicity in BALB/c mouse assessed as changes in hematocrit level in blood at 1000 mg/kg,po and measured after 14 days by hematology test; assay type: organism-based; conditions: in vivo, 336 h, time 14 day
[14] = Acute toxicity in BALB/c mouse assessed as tissue damage in spleen at 1000 mg/kg,po and measured after 14 days by hematoxylin and eosin staining based microscopy; assay type: organism-based; conditions: in vivo, 336 h, time 14 day
[15] = Acute toxicity in BALB/c mouse assessed as changes in AST level in serum at 1000 mg/kg,po and measured after 14 days by Biochemistry analysis; assay type: organism-based; conditions: in vivo, 336 h, time 14 day
[16] = Acute toxicity in BALB/c mouse assessed as changes in CREA level in serum at 1000 mg/kg,po and measured after 14 days by Biochemistry analysis; assay type: organism-based; conditions: in vivo, 336 h, time 14 day
Mus musculus [17] = test: Anti-inflammatory activity against DSS-induced acute ulcerative colitis in C57BL/6 mouse model assessed as decrease in DAI score at 100 mg/kg, po QD for 6 days; assay type: functional, organism-based; conditions: time 6.0 day
[18] = Acute toxicity in BALB/c mouse assessed as changes in ALP level in serum at 1000 mg/kg,po and measured after 14 days by Biochemistry analysis; assay type: organism-based; conditions: in vivo, 336 h, time 14 day
[19] = Acute toxicity in BALB/c mouse assessed as changes in UA level in serum at 1000 mg/kg,po and measured after 14 days by Biochemistry analysis; assay type: organism-based; conditions: in vivo, 336 h, time 14 day
[20] = Acute toxicity in BALB/c mouse assessed as changes in LDH level in serum at 1000 mg/kg,po and measured after 14 days by Biochemistry analysis; assay type: organism-based; conditions: in vivo, 336 h, time 14 day
[21] = 1-octanol/water partition coefficient, logP of the compound at 2 mg by UPLC analysis; assay type: physicochemical
[22] = Acute toxicity in BALB/c mouse assessed as changes in urea level in serum at 1000 mg/kg,po and measured after 14 days by Biochemistry analysis; assay type: organism-based; conditions: in vivo, 336 h, time 14 day
[23] = Acute toxicity in BALB/c mouse assessed as changes in general health status at 1000 mg/kg,po and measured for 14 days; assay type: organism-based; conditions: in vivo, 336 h, time 14 day
[24] = Acute toxicity in BALB/c mouse assessed as tissue damage in heart at 1000 mg/kg,po and measured after 14 days by hematoxylin and eosin staining based microscopy; assay type: organism-based; conditions: in vivo, 336 h, time 14 day
Mus musculus [25] = test: Anti-inflammatory activity against DSS-induced acute ulcerative colitis in C57BL/6 mouse model assessed as decrease in IL-17 production in colon at 100 mg/kg, po QD for 6 days by ELISA; assay type: functional, organism-based; conditions: time 6.0 day
[26] = Acute toxicity in BALB/c mouse assessed as changes in hemoglobin level in blood at 1000 mg/kg,po and measured after 14 days by hematology test; assay type: organism-based; conditions: in vivo, 336 h, time 14 day
[27] = Acute toxicity in BALB/c mouse assessed as changes in CK level in serum at 1000 mg/kg,po and measured after 14 days by Biochemistry analysis; assay type: organism-based; conditions: in vivo, 336 h, time 14 day
[28] = Acute toxicity in BALB/c mouse assessed as death at 1000 mg/kg,po and measured for 14 days; assay type: organism-based; conditions: in vivo, 336 h, time 14 day
[29] = Acute toxicity in BALB/c mouse assessed as tissue damage in lung at 1000 mg/kg,po and measured after 14 days by hematoxylin and eosin staining based microscopy; assay type: organism-based; conditions: in vivo, 336 h, time 14 day
[30] = Acute toxicity in BALB/c mouse assessed as tissue damage in kidney at 1000 mg/kg,po and measured after 14 days by hematoxylin and eosin staining based microscopy; assay type: organism-based; conditions: in vivo, 336 h, time 14 day
Mus musculus [31] = test: Anti-inflammatory activity against DSS-induced acute ulcerative colitis in C57BL/6 mouse model assessed as decrease in body weight loss at 100 mg/kg, po QD for 6 days (Rvb= 25.6%); assay type: functional; set-up: scale not given: the % may be the effect or the level left; conditions: time 6 day
Mus musculus [32] = test: Anti-inflammatory activity against DSS-induced acute ulcerative colitis in C57BL/6 mouse model assessed as decrease in colon tissue damage score at 100 mg/kg, po QD for 6 days relative to DSS group; assay type: functional; set-up: scale not given: the % may be the effect or the level left; conditions: time 6 day
[33] = Acute toxicity in BALB/c mouse assessed as changes in RBC level in blood at 1000 mg/kg,po and measured after 14 days by hematology test; assay type: organism-based, Erythrocyte; conditions: in vivo, 336 h, time 14 day
Mus musculus [34] = test: Anti-inflammatory activity against DSS-induced acute ulcerative colitis in C57BL/6 mouse model assessed as decrease in IL-17 mRNA expression level in colon at 100 mg/kg, po QD for 6 days by RT-PCR analysis; assay type: functional, organism-based; conditions: time 6.0 day
Mus musculus [35] = test: Anti-inflammatory activity against DSS-induced acute ulcerative colitis in C57BL/6 mouse model assessed as decrease in IL-6 mRNA expression level in colon at 100 mg/kg, po QD for 6 days by RT-PCR analysis; assay type: functional, organism-based; conditions: time 6.0 day
[36] = Acute toxicity in BALB/c mouse assessed as changes in TP level in serum at 1000 mg/kg,po and measured after 14 days by Biochemistry analysis; assay type: organism-based; conditions: in vivo, 336 h, time 14 day
[37] = Acute toxicity in BALB/c mouse assessed as changes in lymph level in blood at 1000 mg/kg,po and measured after 14 days by hematology test; assay type: organism-based; conditions: in vivo, 336 h, time 14 day
Mus musculus [38] = test: Anti-inflammatory activity against DSS-induced acute ulcerative colitis in C57BL/6 mouse model assessed as decrease in IL-1beta production in colon at 100 mg/kg, po QD for 6 days by ELISA; assay type: functional, organism-based; conditions: time 6.0 day
[39] = Acute toxicity in BALB/c mouse assessed as tissue damage in liver at 1000 mg/kg,po and measured after 14 days by hematoxylin and eosin staining based microscopy; assay type: organism-based; conditions: in vivo, 336 h, time 14 day
[40] = Acute toxicity in BALB/c mouse assessed as changes in WBC level in blood at 1000 mg/kg,po and measured after 14 days by hematology test; assay type: organism-based; conditions: in vivo, 336 h, time 14 day
[41] = Acute toxicity in po dosed BALB/c mouse assessed as maximum tolerate dose; assay type: organism-based; conditions: in vivo
[42] = Acute toxicity in BALB/c mouse assessed as changes in neutrophil level in blood at 1000 mg/kg,po and measured after 14 days by hematology test; assay type: organism-based; conditions: in vivo, 336 h, time 14 day
Mus musculus [43] = test: Anti-inflammatory activity against DSS-induced acute ulcerative colitis in C57BL/6 mouse model assessed as decrease in IL-1beta mRNA expression level in colon at 100 mg/kg, po QD for 6 days by RT-PCR analysis; assay type: functional, organism-based; conditions: time 6.0 day
[44] = Oral bioavailability in Han Wistar rat at 5 mg/kg and measured upto 24 hrs by LC-MS analysis; assay type: ADME, organism-based; conditions: in vivo
[45] = Apparent oral clearance in Han Wistar rat at 5 mg/kg,po and measured upto 24 hrs by LC-MS analysis; assay type: ADME, organism-based; conditions: in vivo
[46] = Apparent volume of distribution during terminal phase in Sprague-Dawley rat at 15 mg/kg, po and measured upto 48 hrs by LC-MS/MS analysis; assay type: ADME, organism-based; conditions: in vivo, read-out: Vz/F
[47] = target: Dihydroorotate dehydrogenase (quinone), mitochondrial (Homo sapiens) (UniProt Q02127); conditions: dose 10.0 µM
Sequence of Dihydroorotate dehydrogenase (quinone), mitochondrial (Homo sapiens) (Q02127 whole entry): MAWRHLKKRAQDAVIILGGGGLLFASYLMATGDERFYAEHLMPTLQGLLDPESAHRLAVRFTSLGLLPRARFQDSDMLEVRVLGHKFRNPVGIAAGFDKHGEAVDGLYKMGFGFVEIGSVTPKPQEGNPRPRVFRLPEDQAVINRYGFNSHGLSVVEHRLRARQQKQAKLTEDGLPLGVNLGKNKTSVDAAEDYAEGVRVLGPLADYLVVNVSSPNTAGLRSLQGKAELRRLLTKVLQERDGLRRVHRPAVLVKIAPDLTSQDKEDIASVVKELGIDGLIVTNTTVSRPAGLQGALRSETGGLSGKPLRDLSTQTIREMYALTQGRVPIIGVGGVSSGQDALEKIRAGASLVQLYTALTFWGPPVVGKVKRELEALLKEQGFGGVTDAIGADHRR
Description: Binding affinity to human DHODH assessed as change in melting temperature at 10 uM by thermal shift based DSF assay

[48] = Terminal half life in Han Wistar rat at 5 mg/kg,po and measured upto 24 hrs by LC-MS analysis; assay type: ADME, organism-based; conditions: in vivo, read-out: beta t1/2 (converted)

## Nc1nc(-c2nn(Cc3ccccc3F)c3ncccc23)ncc1C1CC1
[1]
  CLint scaled at 3 µM: 45.7 mL/min/kg
[2]
  half-life at 3 µM: 38.1 min
[3]
  half-life at 3 µM: 24.5 min
[4]
  CLint scaled at 3 µM: 101 mL/min/kg
[5]
  CLint scaled at 3 µM: 177 mL/min/kg
[6]
  half-life at 3 µM: 30.8 min

## Fc1cccc(Cl)c1Cn1cc(-c2ncc(C3CC3)cn2)c2cccnc21
Mus musculus [7]
  Activity: 6.1 cm
Mus musculus [8]
  Activity: Active
[9]
  Activity: Non-Toxic
[10]
  Activity: Non-Toxic
[11]
  Activity: Non-Toxic
[12]
  Activity: Non-Toxic
[1]
  CLint scaled at 3 µM: 190 mL/min/kg
[13]
  Activity: Non-Toxic
[14]
  Activity: Non-Toxic
[15]
  Activity: Non-Toxic
[16]
  Activity: Non-Toxic
Mus musculus [17]
  Activity: Active
[18]
  Activity: Non-Toxic
[19]
  Activity: Non-Toxic
[20]
  Activity: Non-Toxic
[2]
  half-life at 3 µM: 9.2 min
[21]
  logP: 5.3
[3]
  half-life at 3 µM: 16.5 min
[22]
  Activity: Non-Toxic
[4]
  CLint scaled at 3 µM: 150 mL/min/kg
[23]
  Activity: Non-Toxic
[24]
  Activity: Non-Toxic
Mus musculus [25]
  Activity: Active
[26]
  Activity: Non-Toxic
[27]
  Activity: Non-Toxic
[28]
  Activity: Non-Toxic
[29]
  Activity: Non-Toxic
[30]
  Activity: Non-Toxic
Mus musculus [31]
  Activity: 17.6%
Mus musculus [32]
  Activity: 27.27%
[5]
  CLint scaled at 3 µM: 693 mL/min/kg
[33]
  Activity: Non-Toxic
Mus musculus [34]
  Activity: Active
Mus musculus [35]
  Activity: Active
[36]
  Activity: Non-Toxic
[37]
  Activity: Non-Toxic
Mus musculus [38]
  Activity: Active
[39]
  Activity: Non-Toxic
[40]
  Activity: Non-Toxic
[41]
  MTD: 1000 mg/kg
[42]
  Activity: Non-Toxic
[6]
  half-life at 3 µM: 7.9 min
Mus musculus [43]
  Activity: Active

## COc1cccc(-c2ccc(NC(=O)C3=C(C(=O)O)CCC3)c(F)c2)c1 [VIDOFLUDIMUS]
Mus musculus [7]
  Activity: 6.4 cm
Mus musculus [8]
  Activity: Active
[44]
  bioavailability: 73.8%
[45]
  CL/F: 220 mL/min/kg
[46]
  Vd/F: 0.02 L/kg
[47]
  ΔTm: 9.8 °C
Mus musculus [25]
  Activity: Active
[48]
  half-life: 546 min
Mus musculus [32]
  Activity: 22.73%
Mus musculus [34]
  Activity: Active
Mus musculus [35]
  Activity: Active
Mus musculus [38]
  Activity: Active
Mus musculus [43]
  Activity: Active

From ChEMBL document CHEMBL5390254, “Discovery and Optimization of Novel hDHODH Inhibitors for the Treatment of Inflammatory Bowel Disease” (J Med Chem, 2023)
